Assay results taken from patent publication US20250163122A1, “COMPOSITIONS AND METHODS FOR TREATING AIRWAY MUCUS DYSFUNCTION” (BOARD OF REGENTS, THE UNIVERSITY OF TEXAS SYSTEM, priority 2022, published 2025).
Where a SMILES comes first, the peptide text is derived from it. Bridges are numbered along the chain shown (N, C = ends). [ ]: non-standard residue; d: D form. S5 = C=CCCC[C@](C)(N)C(=O)O

Biological target: airway epithelial SNAREs, Syt2, Munc13-2*, Munc18-2, NSF, and αSNAP (Rattus norvegicus, UniProt P29101)
Sequence (P29101 whole entry): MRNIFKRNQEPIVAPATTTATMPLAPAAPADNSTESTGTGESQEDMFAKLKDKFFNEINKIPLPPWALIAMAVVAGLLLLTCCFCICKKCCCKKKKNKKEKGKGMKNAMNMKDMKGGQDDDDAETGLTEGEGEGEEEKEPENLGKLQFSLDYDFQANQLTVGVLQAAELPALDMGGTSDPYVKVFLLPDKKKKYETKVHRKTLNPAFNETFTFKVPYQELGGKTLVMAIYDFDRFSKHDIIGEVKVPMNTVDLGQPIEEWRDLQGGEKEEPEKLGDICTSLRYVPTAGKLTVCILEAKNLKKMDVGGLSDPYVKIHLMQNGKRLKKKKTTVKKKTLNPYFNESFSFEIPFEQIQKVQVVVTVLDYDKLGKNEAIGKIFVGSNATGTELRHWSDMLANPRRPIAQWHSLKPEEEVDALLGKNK
Experiment: Single vesicle content mixing assay, airway system with complete reconstitution
Assay type: biochemical
Settings: for Ca2+ independent fusion events / Ca2+ triggered fusion events: Munc13-2* + 10 μM SP9, raw count
Procedure: FIGS. 3A-3G show the effect of stapled peptides on fusion with complete airway system reconstitution according to certain aspects of this disclosure. […] PM: vesicles with reconstituted Stx3 and SNAP-23 that mimic the plasma membrane of epithelial cells; SM: vesicles with reconstituted Stx3/Munc18-2 complex; SG: mucin-containing secretory granules. 0.5 μM Munc13-2* fragment was added after formation of the SM vesicles and during all subsequent stages. 10 μM stapled peptide was added together with SG vesicles and was present during all subsequent stages. […] The fusion probabilities and amplitudes were normalized to the number of analyzed SG—airway PM vesicle pairs (see TABLE 4). FIGS. 3C, 3E, 3F, and 3G show means±SEM for multiple independent repeat experiments (see TABLE 2).
For single vesicle content mixing assay, the lipid composition of the SV, SG, VAMP2, or VAMP8 vesicles was phosphatidylcholine (PC) (48%), phosphatidylethanolamine (PE) (20%), phosphatidylserine (PS) (12%), and cholesterol (20%); for both the neuronal and airway PM vesicles the lipid composition was Brain Total Lipid Extract supplemented 3.5 mol % PIP2, and 0.1 mol % biotinylated phosphatidylethanolamine (PE).
The reconstitution method for neuronal PM and SV vesicles was described in detail previously (see Lai et al., 2017; Kyoung et al., 2011; and Lai et al., 2014). The same methods were used for airway PM, SG, VAMP2, and VAMP8 vesicles. Dried lipid films were dissolved in 110 mM OG buffer containing purified proteins at protein-to-lipid ratios of 1:200 for VAMP2 and Stx1A for SV and neuronal PM vesicles, respectively (or 1:200 for VAMP8 and Stx3 for SG and airway PM vesicles, respectively), and 1:800 for Syt1 for SV vesicles (or 1:1200 for Syt2 for SG vesicles).
A 3-5 fold excess of SNAP-25A or SNAP-23 (with respect to Stx1A or Stx3) and 3.5 mol % PIP2 were added to the protein-lipid mixture for neuronal or airway PM vesicles. […] For the preparation of SV, SG, VAMP2, or VAMP8 vesicles for single vesicle content mixing assay, 50 mM sulforhodamine B (Thermo Fisher Scientific) was added to the protein-lipid mixture. The vesicles subsequently formed during size exclusion chromatography using a Sepharose CL-4B column, packed under near constant pressure by gravity with a peristaltic pump (GE Healthcare) in a 5.5 ml column with a ˜5 ml bed volume that was equilibrated with buffer V (20 mM HEPES, pH 7.4, 90 mM NaCl) supplemented with 20 μM EGTA and 0.1% 2-mercaptoethanol. The eluent was subjected to dialysis into 21 of detergent-free buffer V supplemented with 20 μM EGTA, 0.1% 2-mercaptoethanol, 5 g of Bio-beads SM2 (Bio-Rad) and 0.8 g/L Chelex 100 resin (Bio-Rad). After 4 hours, the buffer was exchanged with 21 of fresh buffer V supplemented with 20 μM EGTA, 0.1% 2-mercaptoethanol and Bio-beads, and the dialysis continued for another 12 h (overnight). […] For ensemble lipid mixing assay, the reconstitution method is the same as that for the single vesicle content mixing assay, except that 50 mM sulforhodamine B was omitted for all the steps.
Single vesicle content mixing experiments. All single vesicle fusion and single molecule experiments were performed on a prism-type total internal reflection fluorescence (TIRF) microscope using 532 nm (green) laser (CrystaLaser) excitation. Two observation channels were created by a 640 nm single-edge dichroic beamsplitter (FF640-FDi01-25x36, Shemrock): one channel was used for the fluorescence emission intensity of the content dyes and the other channel for that of the Cy5 dye that are part of the injected Ca^2+-solution. The two channels were recorded on two adjacent rectangular areas (45×90 m^2) of a charge-coupled device (CCD) camera (iXon+DV 897E, Andor Technology). The imaging data were recorded with the smCamera software developed by Taekjip Ha, Johns Hopkins University, Baltimore. […]

CC[C@H](C)[C@H](NC(=O)[C@]1(C)CCCC=CCCC[C@](C)(NC(=O)[C@H](CCC(=O)O)NC(=O)[C@H](CCC(=O)O)NC(C)=O)C(=O)N[C@@H](CCCCN)C(=O)N[C@@H](CC(=O)O)C(=O)N[C@@H](C)C(=O)N1)C(=O)N[C@@H](CCCNC(=N)N)C(=O)N[C@@]1(C)CCCC=CCCC[C@@](C)(C(=O)N[C@@H](CC(=O)O)C(=O)N[C@@H](CCC(=O)O)C(=O)N[C@@H](CCC(N)=O)C(=O)N[C@@H](CS)C(N)=O)NC(=O)[C@H](CCSC)NC(=O)[C@H](C(C)C)NC(=O)[C@H](CC(C)C)NC1=O [SP9, Ac-EE(S5)KDA(S5)IR(S5)LVM(S5)DEQC-amide] (Ac-EE[S5]KDA[S5]IR[S5]LVM[S5]DEQC-NH2; staple 3-7, 10-14)
effect on Ca2+-independent fusion probability (10 μM peptide): only moderately reduced
effect on vesicle association (10 μM peptide): no effect
effect on Ca2+-triggered fusion amplitude, cumulative fusion probability and synchronization (10 μM peptide, both 50 μM and 500 μM Ca2+): strongly inhibited
Ca2+ independent fusion events (50 μM Ca2+ experiment): 23
Ca2+ triggered fusion events (50 μM Ca2+): 89
Ca2+ independent fusion events (500 μM Ca2+ experiment): 41
Ca2+ triggered fusion events (500 μM Ca2+): 106
